A melting point compilation (Tetko et al.; mined from patent text by program, amines drawn as free bases though some values may be those of a salt)

First: N#Cc1cc(Cl)ccc1Oc1cc(N2CCOCC2)c(F)cc1O
Second: O=C(Nc1ccc(N2CCOCC2)c(C(F)(F)F)c1)c1ccc(F)c(OCc2cnc3ccccc3c2)c1
The melting point of the first is higher: 149 to 151 °C for the first, 81 to 84 °C for the second.

First: COc1cc(Nc2c(C#N)cnc3cc(I)ccc23)c(Cl)cc1Cl
Second: COCOc1ccccc1-c1cc(-c2cc([N+](=O)[O-])ccc2Cl)c(C#N)c(NC(=O)c2cccs2)n1
The melting point of the first is higher: 243 to 245 °C for the first, 208 to 209 °C for the second.

Compared with `CC(C)c1nc(C(C)C)c(CN2CCOCC2)c(-c2ccc(F)cc2)c1CO`, `Cc1ccc(F)cc1NC(=O)CN1CCNC(CO)C1` (configuration not stated) is higher in melting point: 93.5 to 95.5 °C for the first, 128 °C for the second.

First: O=C1C=C(NC(=O)C(=O)c2cn(Cc3ccc([N+](=O)[O-])cc3)c3ccccc23)CO1
Second: O=C(O)C(=O)CC(=O)c1cc(CCc2ccccc2)cn1Cc1ccc(F)cc1
The melting point of the first is higher: 275 to 277 °C for the first, 135 to 137 °C for the second.

First: CCCn1c(=O)c2c(NC)n[nH]c2n(Cc2ccccc2Cl)c1=O
Second: CC(C)c1c2n(c(=O)c3ccccc13)CCCS2
The melting point of the first is higher: over 300 °C for the first, 123 to 124 °C for the second.

Compared with `O=C(O)C(=O)CC(=O)c1ccc(OCc2ccccc2)cc1OCc1ccccc1`, `O=C(O)Cc1cccc(OCc2ccccc2)c1` is lower in melting point: 160 to 164 °C for the first, 127 to 129 °C for the second.

First: CN(CCCCNC(=O)NCCCOc1cccc(CN2CCCCC2)c1)CCN(Cc1ccc(F)cc1)c1ccccn1
Second: CC1CCCN1c1nccc(Oc2ccc(NC(=O)c3cc(F)cc(N4CCCCC4)c3)c3ccccc23)n1 (configuration not stated)
The melting point of the first is lower: 69 °C for the first, 93 to 94 °C for the second.

First: CCOC(=O)C1=C(C)NC(C)=C(C(=O)OCCN2CCN(C(c3ccc(C)cc3)c3ccc(C)cc3)CC2)C1c1cccc([N+](=O)[O-])c1 (configuration not stated)
Second: CCCCOCCOc1ccc(-c2ccc3c(c2)C=C(C(=O)Nc2ccc(S(=O)Cc4nncn4CCC)nc2)CCN3CC(C)C)cc1 (configuration not stated)
The melting point of the first is lower: 82 to 85 °C for the first, 135 to 138 °C for the second.

First: Nc1nccc(-c2c[nH]c3nccc(-c4ccccc4)c23)n1
Second: COC(=O)C(C)c1ccc(-c2ccccc2)c(O)c1 (configuration not stated)
The melting point of the first is higher: over 210 °C for the first, 106 to 108 °C for the second.

First: CN(Cc1cccc2c1CN(C1CCC(=O)NC1=O)C2=O)C(=O)NC1CCCCC1 (configuration not stated)
Second: O=C1c2cc3nnn(C4CCC4)c(=O)c3cc2OC2CCCN12 (configuration not stated)
The melting point of the first is higher: 219 to 221 °C for the first, 216 to 218 °C for the second.

First: Cc1nc2ccc3cccnc3c2nc1C
Second: CC1(C)CNC(=O)c2cc3nc(-c4ccncc4)[nH]c3cc21
The melting point of the first is lower: 159 to 162 °C for the first, 231 to 234 °C for the second.

First: Cc1ccc(-c2ccc3c(c2)C=C(C(=O)Nc2ccc(CN(C)C4CCOCC4)cc2)CCC3)cc1
Second: Cc1ccc(S(=O)(=O)N2[C@@H](CCC(N)=O)CC[C@H]2c2ccc(F)cc2)cc1 (racemic)
The melting point of the first is higher: 161 to 162 °C for the first, 136 °C for the second.

First: COc1cc2oc(=O)c3c(c2cc1OC)CCNC3
Second: COc1cc(C)c(Cc2cnoc2)cc1OC
The melting point of the first is higher: 186 to 188 °C for the first, 68.5 to 70.5 °C for the second.

Compared with `CC1(O)CC(=O)OC(CCc2ccc(Cl)cc2)C1` (configuration not stated), `CCOC(=O)c1ccc(N(Cc2ccc(Cl)cc2)C(C)=O)cc1` is higher in melting point: 61 to 64 °C for the first, 65 to 66 °C for the second.

First: O=C(O)c1nc(SC2CCCCC2)ccc1SC1CCCCC1
Second: C=CCc1cc(CCC(=O)OCC)ccc1C#CC1(O)CN2CCC1CC2 (configuration not stated)
The melting point of the first is higher: 100 to 101 °C for the first, 55 to 56 °C for the second.

Compared with `CCOC(=O)c1c(CCCn2cncn2)nc2sc3cnccc3c2c1-c1ccc(OC)c(OC)c1`, `COc1cc(C)c2c(Oc3cccc(C(F)(F)F)c3)c(OC)cc(NC(C)CCCN3C(=O)c4ccccc4C3=O)c2n1` (configuration not stated) is lower in melting point: 127 to 129 °C for the first, 117 to 119 °C for the second.

First: O=C(CC(=O)Nc1ccc2c(c1)NC(=O)C2)Nc1ccc(F)cc1
Second: CC(C)(C)OC(=O)NCC(=O)Nc1ccc2c(c1)-c1c(c(C(=O)C(C#N)C(=O)Nc3ccccc3)nn1-c1ccccc1)CS2 (configuration not stated)
The melting point of the first is higher: 221 °C for the first, 190 to 200 °C for the second.

First: CC(C)(Oc1ccc(CCC(=O)c2ccc(-c3ccc(Br)cc3)s2)c(Cl)c1Cl)C(=O)O
Second: Cc1c(CC(=O)NCCO[N+](=O)[O-])cc(-c2ccc(S(C)(=O)=O)cc2)n1-c1ccc(F)cc1
The melting point of the first is higher: 155 to 157 °C for the first, 135 °C for the second.

`CCCCCCCC(=O)Nc1ccc2c(C(F)(F)F)cc(=O)oc2c1` and `CCCc1nc2c(N)nc3cc(OCCCCCCNC(=O)OC(C)(C)C)ccc3c2s1` cannot be ordered by melting point: 137 °C for the first, 136 to 139 °C for the second.

Compared with `O=C1OC(=O)c2c(Cl)cc(Cl)cc21`, `Cc1cc(Cl)cc(C(=O)c2[nH]c(=O)[nH]c(=O)c2C(C)C)c1` is higher in melting point: 90 to 94 °C for the first, 254 to 255 °C for the second.

Compared with `NC(=O)NCCNc1ccc(N)cc1Cl`, `COc1ccc2[nH]c(Br)c(CCNC(=O)C3CC3)c2c1` is lower in melting point: 160 °C for the first, 82 to 83 °C for the second.

Compared with `CC(C)=CCCC(C)=CCOc1ccc(C(=O)NCC(=O)Nc2ccccn2)cc1`, `CCNC(=O)c1cc(NC(=O)c2ccccc2)ccc1[Si](C)(C)C` is higher in melting point: 105 to 106 °C for the first, 185 to 187 °C for the second.

Compared with `Fc1ccc(CSc2nc3cnccc3[nH]2)cc1F`, `O=C(c1cc2c(cn1)[nH]c1ccccc12)n1ccnc1` is higher in melting point: 147 to 149 °C for the first, over 280 °C for the second.

Compared with `N#Cc1c(O)[nH]c2cccnc12`, `CCOC(=O)c1cccn2ccnc12` is lower in melting point: over 250 °C for the first, 48 to 50 °C for the second.

First: CCc1nc2c(N)nc(C)c(C)c2n1CCCC(N)=O
Second: O=C(O)CCCCCOC(=O)n1c(-c2cscn2)nc2ccccc21
The melting point of the first is higher: 228 to 230 °C for the first, 79 to 81 °C for the second.

Compared with `O=C(OC1c2nccnc2C(=O)N1c1ccc2ccc(Cl)cc2n1)N1CCNCC1` (configuration not stated), `CC1CCC(=O)N1c1ccnc(NC(=O)NCc2ccccn2)c1` (configuration not stated) is lower in melting point: 242 °C for the first, 155 to 160 °C for the second.

Compared with `CCCC12C=CC=CC1C(=O)N(c1nc(C#N)c(C#N)[nH]1)C2=O` (configuration not stated), `O=C1CC(c2ccccc2)C(=O)N1c1cc(Cc2n[nH]c(=O)c3ccccc23)ccc1F` (configuration not stated) is lower in melting point: 134 to 135 °C for the first, 114 to 120 °C for the second.

First: O=C1N(Cc2cccc(C(F)(F)F)n2)c2ccccc2C12COc1cc3c(cc12)OCCO3 (configuration not stated)
Second: CCC1c2cccn2-c2ccc(C(F)(F)F)cc2N1S(=O)(=O)c1ccc(O)c(Cl)c1 (configuration not stated)
The melting point of the first is higher: 195 to 196 °C for the first, 169 to 171 °C for the second.

First: CCCCCCCCCCCCCCCCSCC(CNS(=O)(=O)CCCCl)NC(=O)NC (configuration not stated)
Second: O=C(CCCCCNC(=O)C/C=C/c1ccccc1)NO
The melting point of the first is lower: 79 to 80 °C for the first, 127 to 128 °C for the second.

First: O=C(Nc1cnc(OCCO)c(NC(=O)OCCCl)c1)OCCCl
Second: CC(=O)OC1CSC(Oc2cncc(-c3ccc(C)cc3Cl)c2)C(OC(C)=O)C1OC(C)=O (configuration not stated)
The melting point of the first is higher: 176 to 178 °C for the first, 162 °C for the second.

First: C#CCOC(=O)Oc1ccc(S(=O)(=O)c2ccc(OC(=O)OCC#C)cc2)cc1
Second: CC1(C)CCC(C)(C)c2cc(C(=O)c3ccc(C(=O)O)cc3)c(OCc3ccccc3)cc21
The melting point of the first is lower: 112 to 114 °C for the first, 212 to 213 °C for the second.

First: Nc1nc(O)c2c(n1)NCC(CCc1ccc(C(=O)N[C@@H](CCC(=O)O)C(=O)O)[nH]1)C2 (some centres not stated)
Second: COc1ccc(C(=O)Nc2ccc3ccc(Oc4ccccc4)nc3n2)nn1
The melting point of the first is higher: over 260 °C for the first, 95 °C for the second.

Compared with `CSc1nnc(C(N)(c2ccc(Cl)cc2)c2ccc3c(c2)c(-c2cccc(Cl)c2)nc2nnnn23)n1C` (configuration not stated), `CC(C)(C)Cc1c(CC(C)(C)C(=O)O)n(Cc2ccc(Cl)cc2)c2ccc(OCc3ccc4ccccc4n3)cc12` is higher in melting point: 150 °C for the first, 172 °C for the second.

Work on `CN(C)C1CCc2oc3ccc([N+](=O)[O-])cc3c2C1` (configuration not stated) yielded a melting point of 88 to 89 °C.
